Source: patent US7109197B2, “N-phenyl-4-(4-pyridyl)-2-pyrimidineamine derivatives” (Syngenta Crop Protection, Inc., priority 2000, dated 2006)
Counter-ions that a name gives are not always drawn.

Tests used:
[1] = tested on: Pyrenophora teres (Helminthosporium); experiment: Assay B-10: Effect against Pyrenophora teres (Helminthosporium)/barley (net blotch on barley); format: in vivo; conditions: Pyrenophora teres on barley cv. Regina, 0.02% active substance, spray; for pest or weed control at 0.02 % strength: 96 h, read-out: B10 activity
Procedure: Assay B-10: Effect Against Pyrenophora teres (Helminthosporium)/Barley (Net Blotch on Barley) 1 week old barley plants cv. Regina are treated with a formulated testcompound (0.02% active substance) in a spray chamber. Two days after application barley plants are inoculated by spraying a spore suspension (3×10^4 conidia/ml) on the test plants. After an incubation period of 2 days at 20° C. and 95% r.h. plants are kept for 2 days at 20° C. and 60% r.h. in a greenhouse. The disease incidence is assessed 4 days after inoculation.

Septoria nodorum = experiment: Assay B-12: Effect against Septoria nodorum/wheat (Septoria leaf spot on wheat); format: in vivo; conditions: Septoria nodorum on wheat cv. Arina, 0.02% active substance, spray; for pest or weed control at 0.02 % strength: Parastagonospora nodorum, 264 h, read-out: B12 activity
Procedure: Assay B-12: Effect Against Septoria nodorum/Wheat (Septoria Leaf Spot on Wheat) 1 week old wheat plants cv. Arina are treated with a formulated test compound (0.02% active substance) in a spray chamber. One day after application wheat plants are inoculated by spraying a spore suspension (5×10^5 conidia/ml) on the test plants. After an incubation period of 1 day at 20° C. and 95% r.h. plants are kept for 10 days at 20° C. and 60% r.h. in a greenhouse. The disease incidence is assessed 11 days after inoculation.

Botrytis cinerea [2] = experiment: Assay B-7: Botrytis cinerea/grape (Botrytis on grapes); format: in vivo; conditions: Botrytis cinerea on grape seedlings cv. Gutedel; 0.02% active substance, spray
Procedure: Assay B-7: Botrytis cinerea/Grape (Botrytis on Grapes) 5 week old grape seedlings cv. Gutedel are treated with the formulated testcompound (0.02% active substance) in a spray chamber. Two days after application grape plants are inoculated by spraying a spore suspension (1×10^6 conidia/ml) on the test plants. After an incubation period of 4 days at 21° C. and 95% r. h. in a greenhouse the disease incidence is assessed.

Botrytis cinerea [3] = experiment: Assay B-8: Effect against Botrytis cinerea/tomato (Botrytis on tomatoes); format: in vivo; conditions: Botrytis cinerea on tomato cv. Roter Gnom; 0.02% active substance, spray
Procedure: Assay B-8: Effect Against Botrytis cinerea/Tomato (Botrytis on Tomatoes) 4 week old tomato plants cv. Roter Gnom are treated with the formulated testcompound 0.02% active substance) in a spray chamber. Two days after application tomato plants are inoculated by spraying a spore suspension (1×10^5 conidia/ml) on the test plants. After an incubation period of 4 days at 20° C. and 95% r. h. in a greenhouse the disease incidence is assessed.

Venturia inaegualis = experiment: Assay B-5: Residual protective activity against Venturia inaegualis on apples (scab on apple); format: in vivo; conditions: Venturia inaegualis on apple seedlings cv. McIntosh; 0.02% active substance, spray
Procedure: Assay B-5: Residual Protective Activity Against Venturia inaegualis on Apples (Scab on Apple) 4 week old apple seedlings cv. McIntosh are treated with the formulated testcompound (0.02% active substance) in a spray chamber. One day after application apple plants are inoculated by spraying a spore suspension (4×10^5 conidia/ml) on the test plants. After an incubation period of 4 days at 21° C. and 95% r. h. the plants are placed for 4 days at 21° C. and 60% r. h. in a greenhouse. After another 4 day incubation period at 21° C. and 95% r. h. the disease incidence is assessed.

Pyricularia oryzae = format: in vivo; conditions: Pyricularia oryzae on rice cv. Sasanishiki; 0.02% active substance, spray

| Compound | B10 activity [1] | B12 activity (Septoria nodorum) | B7 activity (Botrytis cinerea [2]) | B8 activity (Botrytis cinerea [3]) | B5 activity (Venturia inaegualis) | melting point [°C] | pest or weed control at 0.02 % strength [1] [%] | B9 activity (Pyricularia oryzae) | pest or weed control at 0.02 % strength (Septoria nodorum) [%] |
| --- | --- | --- | --- | --- | --- | --- | --- | --- | --- |
| C=CCNc1cc(-c2ccnc(Nc3cccc(Cl)c3)n2)ccn1 [Compound 69] | + (the activity observed in the corresponding test system is 70% or more) | + (the activity observed in the corresponding test system is 70% or more) | + (the activity observed in the corresponding test system is 70% or more) | + (the activity observed in the corresponding test system is 70% or more) | + (the activity observed in the corresponding test system is 70% or more) | – | – | – | – |
| CCC(C)C(CO)Nc1cc(-c2ccnc(Nc3cccc(Cl)c3)n2)ccn1 (stereo not shown) [Compound 41] | + (the activity observed in the corresponding test system is 70% or more) | – | + (the activity observed in the corresponding test system is 70% or more) | – | + (the activity observed in the corresponding test system is 70% or more) | – | – | – | – |
| CC(C)Nc1cc(-c2ccnc(Nc3cccc(Cl)c3)n2)ccn1 (as salt: HCl) [Compound 82] | – | – | – | – | – | 88 to 89 | – | – | – |
| OCC(CO)Nc1cc(-c2ccnc(Nc3cccc(Cl)c3)n2)ccn1 [Compound 35] | + (the activity observed in the corresponding test system is 70% or more) | – | + (the activity observed in the corresponding test system is 70% or more) | + (the activity observed in the corresponding test system is 70% or more) | + (the activity observed in the corresponding test system is 70% or more) | – | – | – | – |
| NNc1cc(-c2ccnc(Nc3cccc(Cl)c3)n2)ccn1 [Compound 22] | – | – | – | – | – | 201 to 203 | > 70 | – | – |
| CC(C)(CO)Nc1cc(-c2ccnc(Nc3cccc(Cl)c3)n2)ccn1 [Compound 28] | + (the activity observed in the corresponding test system is 70% or more) | + (the activity observed in the corresponding test system is 70% or more) | + (the activity observed in the corresponding test system is 70% or more) | + (the activity observed in the corresponding test system is 70% or more) | + (the activity observed in the corresponding test system is 70% or more) | – | – | – | – |
| Clc1cccc(Nc2nccc(-c3ccnc(NCC4CCCO4)c3)n2)c1 (stereo not shown) [Compound 75] | + (the activity observed in the corresponding test system is 70% or more) | + (the activity observed in the corresponding test system is 70% or more) | + (the activity observed in the corresponding test system is 70% or more) | + (the activity observed in the corresponding test system is 70% or more) | + (the activity observed in the corresponding test system is 70% or more) | – | – | – | – |
| COCOCC(C)N(COC)c1cc(-c2ccnc(Nc3cccc(Cl)c3)n2)ccn1 (stereo not shown) [Compound 38] | + (the activity observed in the corresponding test system is 70% or more) | + (the activity observed in the corresponding test system is 70% or more) | – | – | + (the activity observed in the corresponding test system is 70% or more) | – | – | – | – |
| CCOC(=O)Nc1cc(-c2ccnc(Nc3cccc(Cl)c3)n2)ccn1 [Compound 121] | + (the activity observed in the corresponding test system is 70% or more) | – | – | – | – | – | – | + (the activity observed in the corresponding test system is 70% or more) | – |
| CC(CNc1cc(-c2ccnc(Nc3cccc(Cl)c3)n2)ccn1)Cn1ccnc1 (stereo not shown) [Compound 30] | + (the activity observed in the corresponding test system is 70% or more) | + (the activity observed in the corresponding test system is 70% or more) | – | + (the activity observed in the corresponding test system is 70% or more) | + (the activity observed in the corresponding test system is 70% or more) | – | – | – | – |
| CC(CO)Nc1cc(-c2ccnc(Nc3cccc(Cl)c3)n2)ccn1 (stereo not shown) [Compound 39] | + (the activity observed in the corresponding test system is 70% or more) | + (the activity observed in the corresponding test system is 70% or more) | + (the activity observed in the corresponding test system is 70% or more) | + (the activity observed in the corresponding test system is 70% or more) | – | – | – | + (the activity observed in the corresponding test system is 70% or more) | – |
| CC(C)(C)Nc1cc(-c2ccnc(Nc3cccc(Cl)c3)n2)ccn1 [Compound 70] | – | – | – | + (the activity observed in the corresponding test system is 70% or more) | – | 125 to 126 | > 70 | – | > 70 |
| OCCCNc1cc(-c2ccnc(Nc3cccc(Cl)c3)n2)ccn1 [Compound 46] | + (the activity observed in the corresponding test system is 70% or more) | + (the activity observed in the corresponding test system is 70% or more) | – | – | – | – | – | + (the activity observed in the corresponding test system is 70% or more) | – |
| CNc1cc(-c2ccnc(Nc3cccc(Cl)c3)n2)ccn1 [Compound 64] | – | – | – | + (the activity observed in the corresponding test system is 70% or more) | – | 196 to 197 | > 70 | – | > 70 |
| Clc1cccc(Nc2nccc(-c3ccnc(N4CCOCC4)c3)n2)c1 [Compound 17] | – | – | – | – | – | 175 to 176 | – | – | – |
| CC(COc1ncccn1)Nc1cc(-c2ccnc(Nc3cccc(Cl)c3)n2)ccn1 (stereo not shown) [Compound 95] | + (the activity observed in the corresponding test system is 70% or more) | + (the activity observed in the corresponding test system is 70% or more) | – | – | + (the activity observed in the corresponding test system is 70% or more) | – | – | – | – |
| Clc1cccc(Nc2nccc(-c3ccnc(N4CCNCC4)c3)n2)c1 [Compound 21] | – | – | – | – | – | 103 to 104 | – | – | – |
| CCC(=O)Nc1cc(-c2ccnc(Nc3cccc(Cl)c3)n2)ccn1 [Compound 96] | – | – | – | – | + (the activity observed in the corresponding test system is 70% or more) | 215 to 216 | > 70 | – | > 70 |
| CCOCCNc1cc(-c2ccnc(Nc3cccc(Cl)c3)n2)ccn1 [Compound 26] | + (the activity observed in the corresponding test system is 70% or more) | + (the activity observed in the corresponding test system is 70% or more) | + (the activity observed in the corresponding test system is 70% or more) | + (the activity observed in the corresponding test system is 70% or more) | – | – | – | – | – |
| CCNc1cc(-c2ccnc(Nc3cccc(Cl)c3)n2)ccn1 [Compound 60] | – | – | + (the activity observed in the corresponding test system is 70% or more) | + (the activity observed in the corresponding test system is 70% or more) | + (the activity observed in the corresponding test system is 70% or more) | 201 | > 70 | – | > 70 |
| Cl.Clc1cccc(Nc2nccc(-c3ccnc(NC4CCOC4)c3)n2)c1 (stereo not shown) [Compound 125] | + (the activity observed in the corresponding test system is 70% or more) | + (the activity observed in the corresponding test system is 70% or more) | – | + (the activity observed in the corresponding test system is 70% or more) | – | – | – | + (the activity observed in the corresponding test system is 70% or more) | – |
